Laboratory results: PMC11091976, “Shorter Peptide Nucleic Acid Probes Improve Affibody-Mediated Peptide Nucleic Acid-Based Pretargeting” (ACS Pharmacology & Translational Science, 2024)

Legend:
SKOV-3 xenografts = experiment: Biodistribution with preinjection of primary agent (pretargeting); set-up: species or system BALB/C nu/nu mice; settings: mouse, in vivo
Source text: Biodistribution measurements of all radiolabeled PNA-based probes indicated rapid clearance from the blood as well as from other organs and tissues, which is a crucial requirement for the success of in vivo pretargeting strategies.
Animal studies were planned in agreement with EU Directive 2010/63/EU for animal experiments and Swedish national legislation concerning the protection of laboratory animals and were approved by the Ethics Committee for Animal Research in Uppsala, Sweden (animal permission C4/16). HER2-positive xenografts were implanted by subcutaneous injection of 10^7 SKOV-3 cells in the right hind legs of female BALB/C nu/nu mice. Three weeks after implantation, mice were randomized into 8 groups, with 4 mice in each group. At the time of the experiment, the average animal weight was 20 ± 1 g. The average tumor weight was 0.26 ± 0.14 g. The mice were euthanized at predetermined time points by overdose of Ketamine/Xylazine anesthesia, followed by heart puncture. The organs of interest such as blood, lung, liver, spleen, kidney, muscle, bone, and tumor were collected, weighed, and subsequently their radioactivity was measured. Organs and tumor uptake were calculated as the percentage of the injected dose per gram of the sample (%ID/g). […]

HP9 = experiment: UV melting of PNA:PNA duplex with primary probe HP9; assay type: physicochemical; settings: UV 260 nm, 20-95 °C at 1 °C/min, 5 μM each probe, 10 mM phosphate buffer, 10 mM KCl, pH 7.4
Description: The melting temperatures of secondary probes after duplex formation with primary probes were also measured by monitoring the absorbance at 260 nm as a function of temperature (see Figure S23). All probe pairs had melting temperatures well above 37 °C (body temperature) and ranged from 51 °C for the HP6:HP19 pair with 6 complementary bases to 82 °C for the previously studied HP15:HP18 pair with 15 complementary bases (see Figure 3B and Table 2). […] This secondary structure is typically adopted by antiparallel and L-amino acid-modified PNA–PNA duplexes at neutral pH.[49]
Figure S23: Normalized temperature melting profiles from 20–95°C for different primary and secondary probe pairs. UV melting curves at 260 nm. (A) HP15 (15-mer) toward secondary 15-, 12- and 9-mers. (B) HP12 (12-mer) toward secondary 12-, 9-, 8-, 7- and 6-mers. (C) HP9 (9-mer) toward secondary 9-, 8-, 7- and 6-mers. (D) HP6 (6-mer) toward secondary 6-mer.
Concentrations of duplexes in A–D are 5 μM in 10 mM […] with 10 mM KCl at pH 7.4.
(also on this page, place not known: Fraction melted Fraction meltedFraction melted Fraction melted) […]
Supplementary Material and methods […]
Biophysical characterization of PNA:PNA duplexes using CD Spectroscopy and […]
Circular dichroism (CD) and UV melts of PNA:PNA duplexes were measured on a CD spectrometer (Applied Photophysics, Leatherhead, UK) with Peltier temperature control and an external temperature probe. RP-HPLC purified and lyophilized PNA probes were dissolved in 10 mM phosphate buffer with 10 mM KCl at pH 7.4. Samples contained both primary and complementary secondary PNA probes at a final concentration of 5 µM for each probe. These samples were initially heated to 95°C for five minutes, allowed to cool to room temperature, and then transferred to a quartz cuvette with a 1.0 cm path length. A temperature probe was inserted into the solution through the cuvette's rubber cap. […]
from 20°C to 95°C with a 1°C/min temperature gradient. Simultaneously, the UV absorbance at 260 nm was recorded as a function of temperature. Fraction melted data was calculated […]
Fraction melted = 1 ― UVds― UVss , where UVss and UVds are the UV absorbances at 95°C and 20°C, respectively. The melting temperature (Tm) was determined as the maximum of the first derivative of the melting curve and was computed using the Global 3 analysis software (Applied Photophysics, […]
CD spectra in the range of 200–300 nm were recorded for all hybridized PNA:PNA pairs at 20°C before and after the UV melting experiments. All CD spectra were baseline subtracted and presented as an average of five scans.

Z-HP15 = experiment: Multicycle kinetic SPR, immobilized Z-HP15; assay type: binding; settings: MCK SPR
Description: M^–1 s^–1, as well as the slowest dissociation rate constant (kd) at 3.4 × 10^–5 s^–1.
We utilized SPR on a Biacore T200 instrument (Cytiva) to examine how secondary PNA probes (6-mer HP19, 7-mer HP21, 8-mer HP20, and 9-mer HP16) bind to primary agents. These experiments were conducted using dextran-coated CM5 sensor chips and PBS-T buffer at pH 7.4. The ligands were immobilized through a standard EDC/NHS coupling method, and the chip surface was sealed with ethanolamine. A reference surface with no primary agent was also included.
Association and dissociation times were set at 700 and 1800 s, respectively, with regeneration accomplished through a 30 s injection of 10 mM glycine-HCl, pH 1.5.
All SPR experiments were performed in duplicate, and data analysis was conducted using the Biacore T200 Evaluation software version 2.0 with a 1:1 binding model.

Tm (HP9)	Kd (Z-HP15; primary probe HP15, 25 °C)	kd (Z-HP15; primary probe HP15, 25 °C)	Kd (Z-HP15; primary probe HP15, 37 °C)	kd (Z-HP15; primary probe HP15, 37 °C)	Compound	tumor-associated activity (SKOV-3 xenografts)	ka (Z-HP15; primary probe HP15 (Z-HP15 immobilized), 25 °C, 1.4-70 nM, 1:1 model, duplicates)	ka (Z-HP15; primary probe HP15, 37 °C)
–	–	–	–	–	NC(=O)[C@H](Cc1ccc(O)cc1)NC(=O)[C@H](CCC(=O)O)NC(=O)[C@H](CCC(=O)O)NC(=O)CN(CCNC(=O)CN(CCNC(=O)CN(CCNC(=O)CN(CCNC(=O)CN(CCNC(=O)CN(CCNC(=O)CN(CCNC(=O)CN(CCNC(=O)CN(CCNC(=O)[C@H](CO)NC(=O)[C@H](CO)NC(=O)COCCOCCNC(=O)CN1CCN(CC(=O)O)CCN(CC(=O)O)CCN(CC(=O)O)CC1)C(=O)Cn1cnc2c(N)ncnc21)C(=O)Cn1cnc2c(N)ncnc21)C(=O)Cn1ccc(N)nc1=O)C(=O)Cn1cnc2c(N)ncnc21)C(=O)Cn1ccc(N)nc1=O)C(=O)Cn1ccc(N)nc1=O)C(=O)Cn1cnc2c(N)ncnc21)C(=O)Cn1cnc2c(=O)[nH]c(N)nc21)C(=O)Cn1cnc2c(=O)[nH]c(N)nc21 [[^177Lu]Lu-HP16, metal not drawn]	1.91 ± 0.831 %ID/g	–	–
65 °C	0.32 nM	3.4 × 10^–5 s^–1	0.44 nM	8.1 × 10^–5 s^–1	DOTA-AEEA-SS-aacaccagg-EEY-NH2 [HP16, 9-mer secondary PNA probe with DOTA]	–	1.0 × 10^5 M^–1 s^–1	1.8 × 10^5 M^–1 s^–1
